Experimental data taken from US20200237901A1 (priority 2016, published 2020).
Values joined by “and” are separate entries in the source; they are usually repeats but may differ in a detail not shown here. Equal values may be shown once.

Key:
[1] = system: Enterovirus 71 Hn2 strain (EV71-Hn2); format: cell-based
[2] = system: murine hepatitis coronavirus A59 strain (MHV-A59); format: cell-based
[3] = system: Ectromelia Virus Moscow strain (ECTV-MOS strain); parameters: species or system Balb/c mice; conditions: mouse, in vivo, ip
[4] = female, Balb/c, mouse, in vivo, ip

Nc1ccn(C[C@@H](CO)OCP(=O)(O)O)c(=O)n1 [Cidofovir]
effect on the titers of enterovirus (EV71) [1]: no effects | effect on the titers of coronavirus (MHV) [2]: no effects | Case-Fatality Rate (%) [3]: 6.67% and 13.33% | Death Number [3]: 1 and 2 | Survival Number [3]: 14 and 13 | Survival Rate (%) [3]: 86.67% and 93.33% | Case-Fatality Rate (%) [4]: 0% | Death Number [4]: 0 | Survival Number [4]: 15 | Survival Rate (%) [4]: 100%
